In US7566550B2, “Screening method for developing drugs against pathogenic microbes having two-component system” (priority 2002, dated 2009):
“And” between values parts separate entries of the source, which are not always exact repeats. Equal values may be shown once. “Also recorded” adds a separate entry of the source.

Experiments:
DevS201 [1] = target: T1, DevS201 (Mycobacterium tuberculosis, UniProt P9WGK3); experiment: High-throughput (96-well filter retention) autophosphorylation of sensor kinase DevS201 with [γ32P]ATP; type: biochemical, M. tuberculosis; conditions: for IC50: high-throughput format, concentration course 2.5 mM to 1 μM, read-out: concentration required to cause 50% inhibition (IC50) of the autophosphorylation of DevS201
T1 sequence (P9WGK3 378-578 limits assumed): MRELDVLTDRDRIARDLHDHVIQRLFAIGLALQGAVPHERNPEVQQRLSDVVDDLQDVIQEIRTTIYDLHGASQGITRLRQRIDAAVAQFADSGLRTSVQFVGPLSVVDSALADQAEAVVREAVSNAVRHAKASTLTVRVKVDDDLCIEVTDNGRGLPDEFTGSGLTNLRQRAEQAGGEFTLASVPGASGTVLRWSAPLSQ

Rv2027194 [2] = target: T2, Rv2027194 (Mycobacterium tuberculosis, UniProt P9WGK1); experiment: High-throughput (96-well filter retention) autophosphorylation of sensor kinase Rv2027194 with [γ32P]ATP; type: biochemical, M. tuberculosis; conditions: high-throughput format, concentration course 2.5 mM to 1 μM; read-out: concentration required to cause 50% inhibition (IC50) of the autophosphorylation of Rv2027194
T2 sequence (P9WGK1 380-573 limits assumed): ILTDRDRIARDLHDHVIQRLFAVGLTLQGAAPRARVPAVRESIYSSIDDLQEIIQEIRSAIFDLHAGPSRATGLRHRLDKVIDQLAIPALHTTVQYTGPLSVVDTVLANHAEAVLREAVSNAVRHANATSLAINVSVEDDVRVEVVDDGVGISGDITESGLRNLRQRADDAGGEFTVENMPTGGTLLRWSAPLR

DevS201 [3] = target: T1, DevS201; experiment: SDS-PAGE/autoradiography assay of DevS201 autophosphorylation in presence of candidate compounds; type: biochemical, M. tuberculosis; conditions: 1 mM compound, 12 μM DevS201, SDS-PAGE format
Method: FIG. 16. Inhibition of autophosphorylation of sensor kinase DevS201 by various candidate compounds. Autoradiogram of SDS-PAGE of autophosphorylation reaction products. Lane 1, levamisole HCl; lane 2, folic acid; lane 3, gly-gly-glycine; lane 4, EGTA; lane 5, bromo-phenol blue; lane 6, HABA; lane 7, ethidium bromide; lane 8, anti-DevS antibody (1 μl); lane 9, no compound. Briefly, all the mentioned compounds (1 mM final concentration) were added to 12 μM of DevS201 in reaction buffer without ATP and incubated at RT for 30 minutes after which the reaction was initiated by addition of [γ^32P]ATP and cold ATP. The reaction contents were then incubated at 25° C. for 60 minutes and were subsequently analyzed on gel as mentioned earlier.
Utilizing this knowledge a few compounds were tested for their inhibitory activity on the autophosphorylation potential of DevS sensor kinase. These included levamisole, folic acid, glycyl glycyl glycine, ethidium bromide, bromo phenol blue, 2-4-hydroxyphenylazo benzoic acid (HABA), 2-mercapto benzimidazole etc. […]
To elaborate, 12 μM of DevS201 was incubated with the aforementioned compounds in the phosphorylation reaction buffer (50 mM Tris.HCl, pH 8.0, 50 mM KCl and 25 mM MgCl2) for 30 minutes at room temperature. […] Subsequently, the reactions were terminated and analyzed on SDS-PAGE as mentioned previously.

DevS201 [4] = target: T1, DevS201; experiment: Coomassie-stained SDS-PAGE check for aggregation of sensor kinase DevS201; design: species or system M. tuberculosis; conditions: coomassie-stained SDS-PAGE of autophosphorylation reaction
Rv2027194 [5] = target: T2, Rv2027194; experiment: Coomassie-stained SDS-PAGE check for aggregation of sensor kinase Rv2027194; design: species or system M. tuberculosis; conditions: coomassie-stained SDS-PAGE of autophosphorylation reaction
tubercle bacilli = conditions: replicating, static and multidrug-resistant bacilli; cited from earlier work

| Compound | IC50 (DevS201 [1]) | IC50 (Rv2027194 [2]) | inhibition of the autophosphorylation of DevS201 (autoradiogram) (DevS201 [3]) | aggregation of sensor kinase DevS201 in presence of compound (DevS201 [4]) | aggregation of sensor kinase Rv2027194 in presence of compound (Rv2027194 [5]) | inhibition at 2500 µM (DevS201 [1]; in the presence of 2.5 mM, read-out: inhibition of DevS) | activity against tubercle bacilli (tubercle bacilli) |
| --- | --- | --- | --- | --- | --- | --- | --- |
| O=S1(=O)OC(c2cc(Br)c(O)c(Br)c2)(c2cc(Br)c(O)c(Br)c2)c2ccccc21 [BPB, 3′,3″,5′,5″-Tetrabromophenol tetrabromosulfonapthalene] | 1500 to 1700 µM | 1500 to 1700 µM | visible inhibition | no aggregation; also recorded: did not cause aggregation | no aggregation; also recorded: did not cause aggregation | – | – |
| CC[n+]1c(-c2ccccc2)c2cc(N)ccc2c2ccc(N)cc21.[Br-] [EtBr, Phenanthridinium, 3,8-diamino-5-ethyl-6-phenyl-, bromide] | > 2500 µM | 600 to 700 µM and 500 to 1000 µM | visible inhibition | no aggregation; also recorded: did not cause aggregation | no aggregation; also recorded: did not cause aggregation | 35% | – |
| O=[N+]([O-])c1cn2c(n1)OC[C@@H](OCc1ccc(OC(F)(F)F)cc1)C2 [PA-824] | – | – | – | – | – | – | activity against both replicating and static tubercle bacilli as well as multidrug-resistant bacilli |
| Sc1nc2ccccc2[nH]1 [2-MBI, 2-mercapto benzimidazole] | 400 to 600 µM and 300 to 800 µM | 400 to 600 µM and 300 to 800 µM | – | absence of aggregate | absence of aggregate | – | – |
